The values below are quoted from earlier work in patent US20120264119A1, “NEW METHOD FOR DECONTAMINATION AND PROCESSING OF CLINICAL SPECIMENS FROM A PATIENT” (priority 2011, published 2012).

Molecules are shown by their SMILES.

In this data set the test system is Mycobacteria. The following applies: sputum processing with sodium hydroxide alone or with N-acetyl-cysteine.

Turning to `[Na+].[OH-]` [NaOH, sodium hydroxide], the viable mycobacteria destroyed entry was “more than 80%”.
